Results reported in paper PMC6152127, “Facile Synthesis of Novel Coumarin Derivatives, Antimicrobial Analysis, Enzyme Assay, Docking Study, ADMET Prediction and Toxicity Study” (Molecules : A Journal of Synthetic Chemistry and Natural …, 2017).
≈ marks a conversion by molar mass, not a printed value.

Columns and labels:
[1] = system: Bacillus subtilis (NCIM-2063); assay: In vitro antibacterial activity, MIC; assay type: cell-based; conditions: average of three readings; for MIC: Bacillus subtilis, NCIM2063
Protocol: (§1) The newly synthesized compounds 4a–o were screened for their in vitro antibacterial activity against the three different bacterial strains. Minimum inhibitory concentration (MIC) values for antibacterial activity were determined by standard agar method using Ampicillin as standard drug. Dimethyl sulfoxide (DMSO) was used as solvent control. […] Compound 4e bearing a 2,4-difluoro group on the phenyl ring was 48 µg/mL for E. coli, 50 µg/mL for B. subtilis and 52 µg/mL for S. aureus.
(§2) All the synthesized compounds were screened for their in vitro antifungal and antibacterial activity. The antibacterial activity was evaluated against three human pathogenic bacterial strains: Escherichia coli (NCIM-2256), Bacillus subtilis (NCIM-2063) and Staphylococcus aureus (NCIM-2901). The antifungal activity was evaluated against seven human pathogenic fungal strains: Candida albicans (NCIM-3471), Candida glabrata (NCYC-388), Fusarium oxysporum (NCIM-1332), Aspergillus fumigates (NCIM-902), Aspergillus flavus (NCIM-539), Aspergillus niger (NCIM-1196) and Cryptococcus neoformans (NCIM-576), which are often encountered clinically. Miconazole was used as standard drug. Minimum inhibitory concentration (MIC) values were determined as per CLSI guidelines. Dimethyl sulfoxide (DMSO) was used as solvent control.
(§3) All the synthesized compounds 4a–o were screened for their in vitro antibacterial activity. Minimum inhibitory concentration (MIC) values were determined using method recommended by National Committee for Clinical Laboratory Standards (NCCLS). In vitro antibacterial activities of the synthesized compounds 4a–o were tested in Nutrient Broth (NB) for bacteria by the two fold serial dilution method. Seeded broth (broth containing microbial spores) was prepared in NB from 24 h old bacterial cultures on nutrient agar (Hi-media) at 37± 1 °C. The bacterial suspension was adjusted with sterile saline to a concentration of 1× 10^−4–10^−5 C.F.U. The synthesized compounds and standard drug Ampicillin were prepared by two fold serial dilutions to obtain the required concentrations of 400, 200, 100, 50, 25, 12.5, 6.25 and 3.13 μg/mL. The tubes were incubated in BOD incubators at 37± 1 °C for bacteria. The MICs were recorded by visual observations after 24 h (for bacteria) of incubation.

[2] = system: Escherichia coli (NCIM-2256); assay: In vitro antibacterial activity, MIC; assay type: cell-based; conditions: average of three readings; for MIC: Escherichia coli, NCIM2256
Protocol: as §1, §2, §3

[3] = system: Staphylococcus aureus (NCIM-2901); assay: In vitro antibacterial activity, MIC; assay type: cell-based; conditions: average of three readings; for MIC: Staphylococcus aureus, NCIM2901
Protocol: as §1, §2, §3

[4] = system: Aspergillus flavus (NCIM-539); assay: In vitro antifungal activity, MIC, agar method (CLSI); assay type: cell-based; conditions: NCIM539, average of three readings
Protocol: (§4) The newly synthesized 3-((dicyclohexylamino)(substituted phenyl/heteryl)methyl)-4-hydroxy-2H-chromen-2-one derivatives 4a–o were screened for their in vitro antifungal activity against different yeast and filamentous fungal pathogens. […] Dimethyl sulfoxide (DMSO) was used as solvent control.
as §2, with “Miconazole was used as standard drug.” left out
(§5) Antifungal activity was determined as per CLSI (formerly, NCCLS) guidelines. […] The medium yeast nitrogen base was dissolved in phosphate buffer pH 7 and it was autoclaved at 110 °C for 10 min. With each set a growth control without the antifungal agent and solvent control DMSO were included. The fungal strains were freshly sub cultured on to Sabouraud dextrose agar (SDA) and incubated at 25 °C for 72 h. The fungal cells were suspended in sterile distilled water and diluted to get 10^5 cells/mL. Ten μL of the standardized suspension was inoculated onto the control plates and the media incorporated with the antifungal agents. The inoculated plates were incubated at 25 °C for 48 h. The readings were taken at the end of 48 h and 72 h. The MIC was the lowest concentration of drug preventing growth of macroscopically visible colonies on drug containing plates when there was visible growth on the drug free control plates.

[5] = system: Aspergillus fumigates (NCIM-902); assay: as above; assay type: cell-based; conditions: NCIM902, average of three readings
Protocol: as §4
as §2, with “Miconazole was used as standard drug.” left out
as §5

[6] = system: Aspergillus niger (NCIM-1196); assay: as above; assay type: cell-based; conditions: NCIM1196, average of three readings
Protocol: as §4
as §2, with “Miconazole was used as standard drug.” left out
as §5

[7] = system: Candida albicans (NCIM-3471); assay: as above; assay type: cell-based; conditions: NCIM3471, average of three readings
Protocol: as §4
as §2, with “Miconazole was used as standard drug.” left out
as §5

[8] = system: Candida glabrata (NCYC-388); assay: as above; assay type: cell-based; conditions: Nakaseomyces glabratus; average of three readings
Protocol: as §4
as §2, with “Miconazole was used as standard drug.” left out
as §5

[9] = system: Cryptococcus neoformans (NCIM-576); assay: as above; assay type: cell-based; conditions: NCIM576, average of three readings
Protocol: as §4
as §2, with “Miconazole was used as standard drug.” left out
as §5

[10] = system: Fusarium oxysporum (NCIM-1332); assay: as above; assay type: cell-based; conditions: NCIM1332, average of three readings
Protocol: as §4
as §2, with “Miconazole was used as standard drug.” left out
as §5

Row | Compound | MIC [1] [µg/mL] | MIC [2] [µg/mL] | MIC [3] [µg/mL] | MIC [4] [µg/mL] | MIC [5] [µg/mL] | MIC [6] [µg/mL] | MIC [7] [µg/mL] | MIC [8] [µg/mL] | MIC [9] [µg/mL] | MIC [10] [µg/mL] | melting point [°C] | MIC Bacillus subtilis [1] [µg/mL] | MIC Escherichia coli [2] [µg/mL] | MIC Staphylococcus aureus [3] [µg/mL]
1 | CC1(C)S[C@@H]2[C@H](NC(=O)[C@H](N)c3ccccc3)C(=O)N2[C@H]1C(=O)O [Ampicillin, reference compound] | 50 (≈ 143 µM) | 50 (≈ 143 µM) | 50 (≈ 143 µM) | – | – | – | – | – | – | – | – | – | – | –
2 | O=c1oc2ccccc2c(O)c1C(c1ccccc1)N(C1CCCCC1)C1CCCCC1 (stereo not shown) [Compound 4a, 3-((Dicyclohexylamino)(phenyl)methyl)-4-hydroxy-2H-chromen-2-one] | 68 (≈ 158 µM) | 70 (≈ 162 µM) | 65 (≈ 151 µM) | 38 (≈ 88 µM) | 84 (≈ 195 µM) | 43 (≈ 99.6 µM) | 66 (≈ 153 µM) | 58 (≈ 134 µM) | 54 (≈ 125 µM) | 55 (≈ 127 µM) | 112 to 114 | – | – | –
3 | O=c1oc2ccccc2c(O)c1C(c1ccc(Cl)cc1)N(C1CCCCC1)C1CCCCC1 (stereo not shown) [Compound 4b, 3-((4-Chlorophenyl)(dicyclohexylamino)methyl)-4-hydroxy-2H-chromen-2-one] | 50 (≈ 107 µM) | 52 (≈ 112 µM) | 54 (≈ 116 µM) | 14 (≈ 30 µM) | 30 (≈ 64.4 µM) | 15 (≈ 32.2 µM) | 30 (≈ 64.4 µM) | 32 (≈ 68.7 µM) | 15 (≈ 32.2 µM) | 34 (≈ 73 µM) | 120 to 122 | – | – | –
4 | O=c1oc2ccccc2c(O)c1C(c1c(Cl)cccc1Cl)N(C1CCCCC1)C1CCCCC1 (stereo not shown) [Compound 4c, 3-((2,6-Dichlorophenyl)(dicyclohexylamino)methyl)-4-hydroxy-2H-chromen-2-one] | 48 (≈ 95.9 µM) | 50 (≈ 99.9 µM) | 50 (≈ 99.9 µM) | 15 (≈ 30 µM) | 28 (≈ 55.9 µM) | 18 (≈ 36 µM) | 30 (≈ 59.9 µM) | 28 (≈ 55.9 µM) | 14 (≈ 28 µM) | 35 (≈ 69.9 µM) | 126 to 128 | 48 (≈ 95.9 µM) | 50 (≈ 99.9 µM) | 50 (≈ 99.9 µM)
5 | O=c1oc2ccccc2c(O)c1C(c1ccc(F)cc1)N(C1CCCCC1)C1CCCCC1 (stereo not shown) [Compound 4d, 3-((Dicyclohexylamino)(4-fluorophenyl)methyl)-4-hydroxy-2H-chromen-2-one] | 49 (≈ 109 µM) | 50 (≈ 111 µM) | 50 (≈ 111 µM) | 15 (≈ 33.4 µM) | 28 (≈ 62.3 µM) | 20 (≈ 44.5 µM) | 28 (≈ 62.3 µM) | 30 (≈ 66.7 µM) | 18 (≈ 40 µM) | 30 (≈ 66.7 µM) | 122 to 124 | – | – | –
6 | COc1ccc(C(c2c(O)c3ccccc3oc2=O)N(C2CCCCC2)C2CCCCC2)cc1 (stereo not shown) [Compound 4f, 3-((Dicyclohexylamino)(4-methoxyphenyl)methyl)-4-hydroxy-2H-chromen-2-one] | 58 (≈ 126 µM) | 64 (≈ 139 µM) | 55 (≈ 119 µM) | 20 (≈ 43.3 µM) | 44 (≈ 95.3 µM) | 22 (≈ 47.7 µM) | 43 (≈ 93.2 µM) | 57 (≈ 123 µM) | 20 (≈ 43.3 µM) | 39 (≈ 84.5 µM) | 133 to 135 | – | – | –
7 | COc1ccc(C(c2c(O)c3ccccc3oc2=O)N(C2CCCCC2)C2CCCCC2)cc1OC (stereo not shown) [Compound 4g, 3-((Dicyclohexylamino)(3,4-dimethoxyphenyl)methyl)-4-hydroxy-2H-chromen-2-one] | 60 (≈ 122 µM) | 62 (≈ 126 µM) | 62 (≈ 126 µM) | 24 (≈ 48.8 µM) | 52 (≈ 106 µM) | 20 (≈ 40.7 µM) | 50 (≈ 102 µM) | 57 (≈ 116 µM) | 26 (≈ 52.9 µM) | 35 (≈ 71.2 µM) | 138 to 140 | – | – | –
8 | COc1cc(C(c2c(O)c3ccccc3oc2=O)N(C2CCCCC2)C2CCCCC2)cc(OC)c1OC (stereo not shown) [Compound 4h, 3-((Dicyclohexylamino)(3,4,5-trimethoxyphenyl)methyl)-4-hydroxy-2H-chromen-2-one] | 68 (≈ 130 µM) | 68 (≈ 130 µM) | 66 (≈ 127 µM) | 38 (≈ 72.8 µM) | 50 (≈ 95.8 µM) | 34 (≈ 65.2 µM) | 48 (≈ 92 µM) | 64 (≈ 123 µM) | 34 (≈ 65.2 µM) | 45 (≈ 86.3 µM) | 136 to 138 | – | – | –
9 | O=c1oc2ccccc2c(O)c1C(c1ccc(O)cc1)N(C1CCCCC1)C1CCCCC1 (stereo not shown) [Compound 4i, 3-((Dicyclohexylamino)(4-hydroxyphenyl)methyl)-4-hydroxy-2H-chromen-2-one] | 66 (≈ 147 µM) | 64 (≈ 143 µM) | 67 (≈ 150 µM) | 25 (≈ 55.9 µM) | 42 (≈ 93.8 µM) | 28 (≈ 62.6 µM) | 32 (≈ 71.5 µM) | 35 (≈ 78.2 µM) | 24 (≈ 53.6 µM) | 35 (≈ 78.2 µM) | 128 to 130 | – | – | –
10 | O=c1oc2ccccc2c(O)c1C(c1ccccc1O)N(C1CCCCC1)C1CCCCC1 (stereo not shown) [Compound 4j, 3-((Dicyclohexylamino)(2-hydroxyphenyl)methyl)-4-hydroxy-2H-chromen-2-one] | 72 (≈ 161 µM) | 68 (≈ 152 µM) | 72 (≈ 161 µM) | 32 (≈ 71.5 µM) | 55 (≈ 123 µM) | 30 (≈ 67 µM) | 46 (≈ 103 µM) | 47 (≈ 105 µM) | 35 (≈ 78.2 µM) | 38 (≈ 84.9 µM) | 130 to 132 | – | – | –
11 | Clc1ccc(COC(Cn2ccnc2)c2ccc(Cl)cc2Cl)c(Cl)c1 (stereo not shown) [Miconazole, reference compound] | – | – | – | 12 (≈ 28.8 µM) | 35 (≈ 84.1 µM) | 12 (≈ 28.8 µM) | 25 (≈ 60.1 µM) | 25 (≈ 60.1 µM) | 12 (≈ 28.8 µM) | 25 (≈ 60.1 µM) | – | – | – | –
